“And” between values parts separate entries of the source, which are not always exact repeats. Equal entries are not always repeated. Where two headings read alike, the source gives them in different places.
Legend:
[1] = tested on: quinone reductase (NQO1) in Hepa 1c1c7 murine hepatoma cells; assay: Phase 2 enzyme inducer activity (Prochaska microtiter plate bioassay); details: Hepa 1c1c7 cells
Method: Pure panaxytriol was dissolved in dimethyl sulfoxide. Phase 2 enzyme inducer activity was measured using a rapid assay of activity of representative phase 2 enzyme in a cell line. This assay was originally developed by Prochaska and colleagues as in Prochaska H J, Santamaria A B, Talalay P. “Rapid detection of inducers of enzymes that protect against carcinogens.” Proc Natl Acad Sci US A 1992; 89:2394-2398, and has been further refined as in Fahey J W, Dinkova-Kostova A T, Stephenson K K, Talalay P. “The “Prochaska” microtiter plate bioassay for inducers of NQO1.” Methods Enzymol. 2004; 382:243-258, each of which are incorporated by reference in its entirety. Briefly, Hepa 1c1c7 murine hepatoma cells were grown in 96-well microtiter plates. Serial dilutions of the extracts or compounds which were assayed were added into the wells. After 48 hours, the cells were lysed and the activity of quinone reductase (NQO1) was assayed by the addition of a reaction mixture containing an NADPH-generating system, menadione and MTT. NQO1 catalyzes the reduction of menadione to menadiol by NADPH, and MTT is reduced nonenzymatically by menadiol, resulting in the formation of a blue color that can then be quantitated as in Prochaska H J, Santamaria A B. “Direct measurement of NAD(P)H:quinone reductase from cells cultured in microtiter wells: a screening assay for anticarcinogenic enzyme inducers.” Anal. Biochem. 1988; 169:328-336, which is incorporated by reference in its entirety. […] NQO1 activity and protein content of the lysate were measured in duplicate plates with an optical microtiter plate absorbance reader. […] One unit of inducer activity is defined as the amount that, when added to a single microtiter well, doubles the NQO1 specific activity. Sulforaphane and β-naphthoflavone were used as positive controls in each bioassay. […] NQO1 inducer activity was assayed as described herein, and is reported here as treated/control at different concentrations of ginseng extract or component per well. […] (+) Panaxytriol (molecular weight […]), (Δ) Protopanaxatriol (molecular weight 461), (◯) Korean red SUN GINSENG® extract. The reductase assay can also be performed as disclosed in PCT Publication No. WO 06/023821, the entire contents of which are hereby incorporated in the instant application.

[2] = tested on: CCRF-CEM/VBL100 vinblastine-resistant cells; assay: In vitro cytotoxicity against vinblastine-resistant CCRF-CEM subline; assay type: cell-based, human; details: for IC50: Homo sapiens, CCRF-CEM, 72 h
Method: (§1) The cytotoxicity IC50 of each compound was measured with the XTT assay using the 2,3-bis(2-methoxy-4-nitro-5-sulfophenyl)-5-[(phenylamino)carbonyl]-2H-tetrazolium hydroxide (XTT) microculture method as described in Scudiero et al., Cancer Res., 48:4827 (1988), the contents of which are hereby incorporated by reference in their entirety. The CCK-8 assay is a cell counting kit-8 (CCK-8) tetrazolium assay using a 96-well microplate (Dojindo Molecular Technologies, Inc., Rockville, Md.) (M. Ishiyama et al., Biol. Pharm. Bull. 19: 1518, 1996). Absorbance was measured by Powerwave a XS microplate spectrophotometer. This method described is considered a general method in vitro cytotoxicity studies.
(§2) The data in Tables 2X, 3A-E, 4, 5, and 6 were obtained using the cell counting kit-8 (CCK-8) tetrazolium assay in a 96-well microplate. Five to seven concentrations of each compound in triplicate were used, and the IC50 values were determined by CompuSyn software automation (Chou T C. and Martin N. ComboSyn, Inc., 2006) based on the median-effect equation and plot (Chou T C. J. Theor. Biol. 59:235-276, 1976; Chou T C. Pharmacol. Rev. 58: 621-681, 2006). […] The r value defines the correlation coefficient of the median-effect plot which signifies the conformity to the mass-action law principle (Chou T C. J. Theor. Biol. 59:235-276, 1976; Chou T C. Pharmacol. Rev. 58:621-681, 2006). These parameters were determined by CompuSyn simulation (available at http://www.combosyn.com).
(§3) CCRF-CEM human T-cell acute lymphoblastic leukemia cells and the corresponding vinblastine-resistant cells (CCRF-CEM/VBL100) were cultured at an initial density of 5×10^4 cells per milliliter. The cultured cells were maintained in a 5% CO2-humidified atmosphere at 37° C. in RPMI medium 1640 (GIBCO/BRL) containing penicillin (100 units/mL), streptomycin (100 μg/mL, GIBCO/BRL), and 10% heat-inactivated fetal bovine serum. The cytotoxicity of each Compound of the invention was measured using the 2,3-bis(2-methoxy-4-nitro-5-sulfophenyl)-5-[(phenylamino)carbonyl]-2H-tetrazolium hydroxide (XTT) microculture method as described in Scudiero et al., Cancer Res., 48:4827 (1988), the contents of which are hereby incorporated by reference in their entirety.
(§4) Absorbance was measured by Powerwave XS microplate spectrophotometer.

A-549 lung carcinoma = assay: Cytotoxicity against solid tumor cells (Table 4); assay type: cell-based; details: Homo sapiens, A549, CCK-8, 72 hrs
Method: (§5) Compounds are also evaluated against A-549 lung carcinoma and SK-OV-3 ovarian adenocarcinoma cell lines using the methodology as for Table 3. The potency order for the compounds may vary in different tumor cell lines. […] Absorbance was measured using a Powerwave XS microplate spectrophotometer.

[3] = tested on: SK-OV-3 ovarian adenocarcinoma; assay: Cytotoxicity against solid tumor cells (Table 4); assay type: cell-based; details: Homo sapiens, CCK-8, 72 hrs
Method: as §5

[4] = tested on: CCRF-CEM human T-cell acute lymphoblastic leukemia cells; assay: In vitro cytotoxicity against CCRF-CEM (XTT / CCK-8 tetrazolium assay, 72 hr); details: Homo sapiens, CCRF-CEM
Method: as §1, §2, §3, §4

[5] = tested on: CCRF-CEM subline resistant to TAXOL; assay: In vitro cytotoxicity against TAXOL-resistant CCRF-CEM subline; assay type: cell-based, human; details: for IC50: Homo sapiens, CCRF-CEM
Method: as §2, §4

MX-1 mammary carcinoma = assay: Cytotoxicity against solid tumor cells, CCK-8, 72 hrs (Table 4); assay type: cell-based; details: Homo sapiens
Method: as §5

HCT-116 colon carcinoma = assay: as above; assay type: cell-based; details: Homo sapiens
Method: as §5

[6] = tested on: human lymphoblastic leukemic T-cell growth; assay: Cytotoxic activity relative to stability during storage at −20° C. in DMSO (Table 10); assay type: cell-based; details: compared with Compound D
Text: Without wishing to be bound by theory, the oxidized versions may be active metabolites. This theory provides an explanation of the delayed onset of therapeutic effects seen in the figures herein. The oxidized compounds may be active agents that are formed slowly upon metabolic oxidation. […] The active metabolites may explain the biphasic pharmacological properties of panaxytriol or Compound D that have been observed (FIGS. 9B, C, D; FIGS. 11D, E, F, and FIGS. 12D, E). […] Induction of the phase 2 enzymes may slow oxidation of the compounds (Ng et al., Tetrahedron Letters. 49: 7178-7179 (2008)).

[7] = Method: The experimental procedure for FIG. 14 was carried out similarly to that in FIG. 1. * means P<0.1 and ** means P<0.05. Body weight was calculated as described for FIGS. 1 and 4-7.
The experiments were performed as indicated for FIG. 14, with Compound (K) being administered orally. Compound K was administered on the days indicated by the arrows at the top of the graph, and paclitaxel was administered on the days indicated by the arrows on the bottom of the graph. Body weight was calculated as described for FIGS. 1, 4-7, 14 and 15. * means P<0.1 and ** means P<0.05.

[8] = tested on: quinone reductase (NQO1) in Hepa 1c1c7 murine hepatoma cells; details: for comparison; cited from earlier work
[9] = for Total score: Table 11A, First Round, days 09-27; for 1st & 2nd Cycle Total Score / 2nd Cycle Total Score: Table 11C; for toxicity score (neurotoxicity): nude, mouse, in vivo
Method: The “toxicity score” (or “Total Score” in Tables 11A-C) is determined by adding the neurotoxicity ratings. The ratings used are: Normal (−, a toxicity score of 0); slightly unable to balance (+, a toxicity score of 1); hind-leg paralysis (++, a toxicity score of 2); and 4-leg paralysis and death (+++, none observed).

[10] = tested on: human colon carcinoma HCT-116 xenografts; assay: Compound D with Iso-Oxazole-Fludelone or Isodehydelone in nude mice bearing HCT-116 xenografts; details: FIG. 15; Isodehydelone 6 hr-iv infusion, with or without oral Compound (D); n=7
[11] = Table 3D, CCK-8, 72-hr incubation, read-out: IC50 CCRF-CEM/Vinblastine
[12] = 72 h, read-out: IC50 CCRF-CEM, Table 3D, CCK-8, 72-hr incubation
[13] = read-out: IC50 (in μM), cytotoxic potency against cancer cell line growth in vitro, Table 3C, cell line not given
[14] = Table 3D, CCK-8, 72-hr incubation, read-out: IC50 CCRF-CEM/TAXOL

With CC(C)=CCCC(C)(O)[C@H]1CC[C@]2(C)[C@@H]1[C@H](O)C[C@@H]1[C@@]3(C)CC[C@H](O)C(C)(C)[C@@H]3CC[C@]12C (stereo in doubt) [protopanaxadiol] the “significant cytotoxicity observed above” value [1] was “above 5 μg/well”.

With CCCCCCC[C@H]1OC(C)(C)O[C@@H]1CC#CC#CC(=O)CC [Compound (J)] the IC50 [2, 11] was 1.19 µM, the IC50 (A-549 lung carcinoma) was 12.6 µM and the IC50 [3] was 13 µM. For the same compound, the IC50 [4, 12] was 0.83 ± 0.26 µM, the IC50 [4, 13] was 0.83 µM and the IC50 [5, 14] was 1.72 µM. It also gave an IC50 (MX-1 mammary carcinoma) of 1.47 µM and an IC50 (HCT-116 colon carcinoma) of 1.09 µM.

In the case of CCCCCCC[C@H]1OC(C)(C)O[C@@H]1CC#CC#C[C@@H](O)CC [Compound (K)], the “stability (shelf life)” value [6] is reported as “more stable than Compound D”, the “reduction of paclitaxel-induced general toxicity and neurotoxicity compared with Compound D” value ([7]; mouse, in vivo) is reported as “superior to Compound D” and the “effect of oral administration on paclitaxel toxicity” value ([7]; mouse, in vivo, po) is reported as “orally effective in Reducing the Toxicity of paclitaxel and improving recovery after treatment”. For the same compound, the IC50 [2, 11] was 3.3 µM, the IC50 (A-549 lung carcinoma) was 1.02 µM and the IC50 [3] was 4.03 µM. For the same compound, the IC50 [4, 12] was 2.03 ± 0.13 µM, the IC50 [4, 13] was 2.03 µM and the IC50 [5, 14] was 3.57 µM. For the same compound, the IC50 (MX-1 mammary carcinoma) was 3.45 µM and the IC50 (HCT-116 colon carcinoma) was 3.17 µM.

For C=Cc1c(C)c2cc3nc(c4c5[n-]c(cc6nc(cc1[n-]2)C(C)=C6CC)c(C)c5C(=O)[C@@H]4C(=O)OC)[C@@H](CCC(=O)OC/C=C(\C)CCC[C@H](C)CCC[C@H](C)CCCC(C)C)[C@@H]3C.[Mg+2] [chlorophyll a], the “reported CD value” [8] is listed as 250 µM and the reported inducer potency [8] is listed as 24,600 U/g.

In the case of CC(=O)O[C@H]1C(=O)[C@@]2(C)[C@H]([C@H](OC(=O)c3ccccc3)[C@]3(O)C[C@H](OC(=O)[C@H](O)[C@@H](NC(=O)c4ccccc4)c4ccccc4)C(C)=C1C3(C)C)[C@]1(OC(C)=O)CO[C@@H]1C[C@@H]2O [paclitaxel], the Total score ([9]; per mouse) is reported as 8 (3×) and 2 (2×) and 0 and 5 and 3 and 10 and 7, the Total score ([9]; whole group of 10 mice) is reported as 53 and the “1st & 2nd Cycle Total Score” value ([9]; per mouse, listed as Taxol) is reported as 33 (2×) and 4 (2×) and 15 and 35 and 18 and 34 and 27 and 31. For the same compound, the “2nd Cycle Total Score” value ([9]; per mouse, listed as Taxol) was 25 (2×) and 2 (2×) and 15 (2×) and 30 and 24 and 20 and 23, the “1st & 2nd Cycle Total Score” value ([9]; whole group of 10 mice) was 234 and the “2nd Cycle Total Score” value ([9]; whole group of 10 mice) was 181. For the same compound, the “1st Total score (group)” value ([9]; days 12-26, sum over 11 mice of the group, first round of paclitaxel) was 13, the “1st Total score (per mouse)” value ([9]; days 12-26, sum per individual mouse, first round of paclitaxel) was 3 and 2 (3×) and 4 and the “2nd Total Score up to day 42 (group)” value ([9]; days 28-42, sum over 11 mice of the group, second round of paclitaxel) was 79. The “2nd Total Score up to day 42 (per mouse)” value ([9]; days 28-42, sum per individual mouse, second round of paclitaxel) was 8 and 6 (3×) and 9 (3×) and 7 and 5 and 4 and 10, the “toxicity score (neurotoxicity)” value ([9]; 27 day) was 2 and the “toxicity score (neurotoxicity)” value ([9]; 59 day) was 6. For the same compound, the “complete remission (CR)” value ([7]; FIG. 14, paclitaxel 25 mg/kg iv Q2D×8, with or without Compound K 30 mg/kg iv Q4D×14) was 10/10, the BW loss ([7]; mouse, in vivo) was “approximately 25%” and the “decrease in BW” value ([7]; mouse, in vivo) was 13.2%. The IC50 ([2]; Table 3A-2, CCK-8, 72-hr exposure, read-out: CCRF-CEM/VBL (IC50 in μM)) was 2.26 µM, the “Fold of resistance (IC50 ratio CCRF-CEM/VBL vs CCRF-CEM)” value ([2]; Table 3A-2) was 1741 fold and the IC50 ([4]; 72 h, read-out: CCRF-CEM (IC50 in μM), Table 3A-2, CCK-8, 72-hr exposure) was 0.0013 µM. For the same compound, the IC50 ([5]; Table 3A-2, CCK-8, 72-hr exposure, read-out: CCRF-CEM/TAXOL (IC50 in μM)) was 1.12 µM and the “Fold of resistance (IC50 ratio CCRF-CEM/TAXOL vs CCRF-CEM)” value ([5]; Table 3A-2) was 860 fold.

In the case of C[S+]([O-])CCCCN=C=S (stereo not drawn) [sulforaphane], the “reported CD value” [8] is listed as 0.2 µM and the reported inducer potency [8] is listed as 188,000,000 U/g.

In the case of “iso-oxazole-dehydelone (17-isooxazole-dehydelone) [isodehydelone]”, the mice died [10] is reported as “Two”.
